# Data reported in patent publication US9694050B2, “THY1 (CD90) as a novel therapy to control adipose tissue accumulation” (University of Rochester, priority 2012, dated 2017).
# Legend:
# Thy1 [1] = assay: Thy1 expression in hMSCs treated with obesogens (qPCR, flow cytometry); format: cell-based, human
# Method: In particular, hMSCs were induced to adipocytes with a rosiglitazone cocktail (adipogenic) or cocktail containing the putative obesogens BPA (1 μM), TBBPA (5 μM), or TBT (100 nM). […] The obesogen doses selected are based on literature and represent concentrations proposed to be found in human tissues. Roos et al., “Circulating Levels of Persistent Organic Pollutants in Relation to Visceral and Subcutaneous Adipose Tissue by Abdominal MRI,” Obesity (Silver Spring) (2012) and Antizar-Ladislao, B, “Environmental Levels, Toxicity and Human Exposure to Tributyltin (TBT)-Contaminated Marine Environment. A Review,” Environ Int 34(2):292-308 (2008), each of which is hereby incorporated by reference in its entirety. As noted above, the cells were cultured in adipogenic medium containing rosiglitazone, a PPARγ ligand that promotes adipogenesis and obesity, and the noted putative obesogens.
# qPCR analysis of the mRNA levels of Thy1 and the adipogenic marker FABP4 was conducted. […] The same samples as in FIG. 4A were used to measure Thy1 mRNA levels by qPCR. […] Thy1 and FABP4 levels were normalized to TBP mRNA levels (control gene).
# hMSCs were also treated with vehicle (DMSO), 20 uM TBBPA, or 10 uM rosiglitazone for 72 hrs, harvested and stained with a fluorescent anti-Thy1 antibody for analysis of Thy1 by flow cytometry.
# Thy1 [2] = assay: Thy1 expression in mouse MSCs cultured with obesogens (flow cytometry, western blotting); format: cell-based; conditions: 96 hrs; for Thy1, western blotting: concentrations in figure
# Method: Mouse MSCs were cultured with obesogens for 96 hrs, harvested, and analyzed for Thy1 expression by flow cytometry or western blotting.
# [3] = tested on: human pre-adipocyte fibroblasts; assay: Adipogenesis of human pre-adipocyte fibroblasts in adipogenic medium (Thy1 siRNA, SU6656); format: cell-based
# Method: 3T3-L1 cells or primary fibroblasts were cultured to confluence before addition of the adipogenic medium. Cells were treated with an adipogenic medium containing 0.5 mM 3-isobutyl-1-methylxanthine, 0.25 μM dexamethasone, and 1 μg/ml insulin (all three from Sigma Aldrich, St. Louis, Mo.), 2 μM rosiglitazone (Cayman) for two days. After two days medium was replaced with dexamethasone, insulin and rosiglitazone for another 5-8 days. Media was replaced every 2 days through the duration of the experiment. After differentiation cells were analyzed for lipid accumulation and adipogenesis by Oil-red-O (Sigma Aldrich, St. Louis, Mo.) staining and AdipoRed (Cayman) staining as described previously. Lehmann et al., “Novel Anti-adipogenic Activity Produced by Human Fibroblasts,” Am J Physiol Cell Physiol 299(3):C672-81 (2010), which is hereby incorporated by reference in its entirety.
# 5-8×10^4 or 1×10^5 cells were seeded into 24 well or 6 well cell culture plates (Corning) and subsequently were transiently transfected with 50-200 nM of siRNA (Ambion) using Lipofectamine 2000 (Invitrogen) as the transfection reagent and following the manufacture's protocol. The cells were incubated with siRNA specific for Thy1 specific or a corresponding non-specific control siRNA for 3-4 days before the cells were subjected to adipogenic differentiation experiments as described above. At the start of the adipogenic differentiation experiment, the cells were again transiently transfected with 100 nM Thy1-specific or control siRNA.
# Thy1 specific or control siRNA was introduced into human pre-adipocyte fibroblasts using Lipofectamine 2000. Fibroblasts were then treated with an adipogenic medium and adipogenesis was measured by visual inspection of lipid droplets, FABP4 expression and lipid accumulation. Total Thy1 protein expression and Thy1 surface expression were analyzed by western blot and flow cytometry, respectively. […] Cell images were captured to show the presence of lipid droplets in fibroblasts treated with adipogenic medium, and are shown in FIG. 12B. […]
# [4] = Diet induced obesity in mice on a high fat diet, soluble Thy1 injected; format: in vivo, mouse; conditions: high fat diet (60% kcals from fat), minimum of 8 weeks, 0.2 or 0.4 mg/kg intravenous or subcutaneous
# From the text: Milligram quantities of soluble Thy1 will be injected into mice receiving a high fat (60% kcals from fat) diet.
# Mice fed a high fat diet and treated as in Table 2 will be weighed weekly for the duration of the experiment (minimum of 8 weeks). Following the study, mice will be sacked for fat depot quantification, histologic analysis and fat tissue will be analyzed by western blot for the adipogenic markers FABP4, C/EBPα, Fyn, and phospho-Fyn. Serum samples will also be acquired for analysis of Thy1, adiponectin and glucose levels.
# human stem cells = assay: Adipogenesis of human stem cells / preadipocytes given a proadipogenic cocktail; format: cell-based
# From the text: Thy1 (or Thy-1, also termed CD90) is an N-glycosylated, glycophosphatidylinositol (GPI)-anchored membrane protein that was originally identified as a surface marker on mouse T cells and thymocytes. Thy1 is a surface marker of unknown function that is expressed on some stem cells and some fibroblasts. While Thy1 was discovered more than 35 years ago, its molecular function remains a mystery. The inventors of the present application have discovered that Thy1 is more than a surface marker; rather, it can control the fate of cells by preventing adipogenesis. […] Similarly, deliberate genetic over-expression of Thy1 has the same effect, preventing cells from becoming adipocytes.
# Erk1/2 = assay: Western blot for phospho-Erk1/2 in 3T3-L1 cells; format: cell-based, mouse; conditions: Thy1 expressed in 3T3-L1 cells
# Method: 3T3-L1 cells infected with a control or Thy1-expressing lentivirus (LV) were treated with 10 nM insulin-like growth factor (IGF)-1 for 0, 5, or 10 minutes. Cells were treated as described, then whole cell lysates were harvested and analyzed by western blot for phospho-Erk1/2 and GAPDH expression (FIG. 18A). Western blot images were analyzed by densitometry and phospho-Erk1/2 levels were normalized to GAPDH to adjust for total protein variations (FIG. 18B).
# PPARγ phosphorylation at serine 82 (S82) inhibits ligand binding and severely reduces its ability to promote adipogenesis. […] To investigate if Thy1 regulates the Erk pathway, Thy1 was expressed in 3T3-L1 cells and the activity of Erk1/2 (which corresponds to phospho-Erk) was monitored by western blotting (see FIGS. 18A and 18B). […]
# Fyn = assay: Western blot for phospho-STAT5 (Fyn mediated phosphorylation); format: cell-based, human; conditions: Thy1 expression
# PPARγ = assay: Western blot for PPARγ protein in 3T3-L1 cells; format: cell-based, mouse; conditions: expression of Thy1 in 3T3-L1 preadipocyte fibroblasts
# From the text: Orbital fibroblasts from two individual human donors were separated into Thy1^− and Thy1+ subsets. Cells were harvested and analyzed by western blotting for PPARγ and actin (loading control). […] In addition, 3T3-L1 cells were transduced with control or human Thy1− encoding lentiviral (Lv) particles.
# To test how Thy1 affects PPARγ, it was first considered whether Thy1 would down-regulate the expression of PPARγ protein. However, two different strains of human TED orbital fibroblasts, sorted into Thy1+ or Thy1^− subsets, expressed similar levels of PPARγ (FIG. 15A). […] Thus, other ways that Thy1 could influence the function of PPARγ were considered, as described below.
# [5] = human and mouse mesenchymal stem cells
# [6] = induced to differentiate into adipocytes
compound,measurement,setting,value
"CC(C)(c1cc(Br)c(O)c(Br)c1)c1cc(Br)c(O)c(Br)c1 [TBBPA, tetrabromobisphenol-A]",Thy1 expression,Thy1 [1]; MSCs treated with obesogens,reduced
same,"surface expression of Thy1, flow cytometry","Thy1 [1]; hMSCs, 20 uM, 72 hrs, vs vehicle (DMSO)",decreased
same,Thy1 expression,Thy1 [1]; [5],dramatically reduced
same,"Thy1 surface expression, Mean Fluorescent Intensity",Thy1 [2]; 5 μM,dramatic reduction
same,"Thy1, western blotting",Thy1 [2],reduction
CN(C)S(=O)(=O)c1ccc2c(c1)/C(=C/c1cc3c([nH]1)CCCC3)C(=O)N2 [SU6656],"adipogenic effect of Thy1 siRNA (FABP4 mRNA, lipid accumulation)",[3]; Thy1 siRNA followed by adipocyte induction,ablated
same,"FABP4 protein expression, % of control, western blot",[3]; [6],30%
same,"lipid accumulation, % of control",[3]; [6],55%
"Thy1: N-glycosylated, GPI-anchored membrane protein; human Thy1 SEQ ID NO:1; soluble form lacks the GPI anchor",fat accumulation,[4],significantly less fat accumulation
same,weight gain,[4],significantly less weight
same,human stem cell adipogenesis,human stem cells,blunts
same,becoming fat cells,"human stem cells; human and mouse preadipocytes and primary human stem cells, proadipogenic cocktail containing a PPARγ ligand",prevent
same,increase of Erk1/2 phosphorylation compared to control 3T3-L1 cells,Erk1/2,greater than 3 fold
same,"phospho-STAT5 levels, western blotting",Fyn,reduces
same,PPARγ protein levels,PPARγ,did not alter
"CCC[CH2][Sn]([CH2]CCC)[CH2]CCC [TBT, tributlytin]",Thy1 expression,Thy1 [1]; MSCs treated with obesogens,reduced
same,Thy1 expression,Thy1 [1]; [5],dramatically reduced
same,"Thy1, western blotting",Thy1 [2],reduction
